Data on 12 compounds can be found in US4695576A, “L-N-n-propylpipecolic acid-2,6-xylidide” (priority 1985, dated 1987).

Each structure is given as a SMILES string.

Data set [1] concerns peripheral nerve endings of the epidermis. Nature of the data set: Intracutaneous wheals, infiltration anesthesia on forearms of man. It is filed as in vivo. The following applies: 12 healthy volunteers, pinprick. The source says:
By use of intracutaneous wheals it is possible to measure the analgesic effect of an anesthetic on the peripheral nerve endings of the epidermis.
This technique gives information about:
(1) The duration of anesthesia.
^1 Infiltration anesthesia on forearms of man. The test solutions wer
injected intracutaneously on the dorsum of the forearms of 12 healthy
volunteers, 20-25 years old. Three wheals were made on each arm in a
rotating system in a doublebind fashion. The local anesthetic effect was
tested using a pinprick technique. The "duration of anesthesia" was
defined as the time during which none out of six pinpricks into the wheal
was felt. The method has been described by Dhuner et al. (1972). […]

In another data set the test system is ulnar volar nerves. The data set can be described thus: Finger blockade, digital nerve blocks in man. It is filed as in vivo. The note with it: for Time of onset, finger blockade: time from injection to complete analgesia. How it is done: ^2 Digital nerve blocks in man. The test solutions were injected to
block the ulnar volar nerves on the 2nd and 4th fingers of the same
volunteers who had participated in the intracutaneous wheal tests
described above. The tests were carried out in a double blind fashion in
rotating system, so that each solution was used with equal frequency on
each of the blocked fingers. A total of for injections 1.0 ml per
injection, was done in each subject. One week later the procedure was
repeated in the same subjects using the remaining test solutions. This
method has been described by Dhuner et al. (1972) (for citation see Table
2 footnote 1). To measure the efficacy and duration of the blocks, the
individual fingers were pricked rapidly 10 times with a needle algesimete
and the number of painful pricks noted. Each finger was tested every five
minutes until complete recovery. The time of complete anesthesia has been
called "duration of anesthesia".
*i.e. the time from injection to complete analgesia?
**i.e. the number of successful anesthesias of total number of
anesthesias performed (no anesthesia is possible if the ulnar volar nerve
are not contacted by the anesthetic).

Data set [2] relates to tissue. The note with it: in vivo; cited from earlier work.
The subject of data set [3] is tissue. The data set can be described thus: Tissue toxicity limits (Trypan blue test, threshold of tissue irritancy). In kind it is in vivo. The following applies: in vivo. The source says:
The toxicity of the homologous series of N-alkylpipecolic acid-2,6-xylidides increases step wise and quickly with the lengthening of the alkyl chain. This is manifest from Table 1 set forth below, which compares racemic mixtures of alkyl homologues having from 1 to 5 carbon atoms.
*Trypan blue test; Hoppe et al. (1950), 39, 147-151 "Use of Trypan Blue
and Rabbit Eye Tests For Irritation", J. Amer. Pharm. Assoc. (Scient.
Ed.), the values are approximate threshold values of tissue irritancy.

Another data set deals with skin. The data set can be described thus: Skin temperature measurements within intracutaneous wheals. It is filed as in vivo, man. The following applies: for Temperature Difference (T1 wheal vs T2 controls) / T1 Intracutaneous Wheal temperature: HCl-salt, 10 minutes after injection; for T1 Intracutaneous Wheal temperature: mean of 6 wheals. How it is done: The mean value of 6 wheals for each substance forms the basis for the values. The control values, however, represent the mean value obtained from 4 different sites measured outside the wheals 90 degrees apart and 2 centimeters from the wheal's center.
In the temperature measurements, an Oriel temperature apparatus* has been used. This is battery driven and is connected to a detector (diameter, 2.5 mm) and has an accuracy of ±0.1° C. The temperature of the skin is measured by pressing the detector against the skin with a pressure of 100 grams. It is retained against the skin until a constant temperature is obtained.
In Table 4, T1 is the measurement obtained at the center of the wheal, and T2 is the average of four measurements taken 90 degrees apart outside of the wheal and within 2 centimeters of the wheal's center.

Data set [4] in a line: Anesthetic activity/potency comparison. In kind it is in vivo. The following applies: comparison within homologous series.

For the compound `Cc1cccc(C)c1NC(=O)[C@H]1CCCCN1C` [1 D], the “Analgesia-duration, intracutaneous wheals” value in data set [1] (Conc. 0.5%) is 53 ± 8 min. Also, in the data set on ulnar volar nerves (Concentration 1.0%), the “Analgesia-duration, finger blockade” value is 71 ± 13 min; the “Frequency (successful anesthesias of total performed)” value (“Frequency” for short) is on record as 9/13; the “Time of onset, finger blockade” value stood at 7 ± 2 min.
With `CCCCN1CCCC[C@@H]1C(=O)Nc1c(C)cccc1C` [4 D], the “Analgesia-duration, intracutaneous wheals” value in data set [1] (Conc. 0.25%) was 75 ± 11 min. In the data set on ulnar volar nerves (Concentration 0.25%), the “Analgesia-duration, finger blockade” value was found to be 243 ± 38 min; the “Frequency” value was 14/20; the “Time of onset, finger blockade” value was found to be 15 ± 4 min.
Consider `CCCCCN1CCCC[C@@H]1C(=O)Nc1c(C)cccc1C` [5 D], for which, in the data set on tissue [2], the tissue irritation entry is given as “irritating”.
Regarding `CCN1CCCC[C@H]1C(=O)Nc1c(C)cccc1C` [2 L], in the data set on ulnar volar nerves (Concentration 0.5%), the “Analgesia-duration, finger blockade” value came out at 141 ± 18 min; the “Frequency” value is recorded as 11/13; the “Time of onset, finger blockade” value is 9 ± 2 min.
For the compound `CCCN1CCCCC1C(=O)Nc1c(C)cccc1C` (stereo not drawn) [3 R, N--n-propylpipecolic acid 2,6-xylidide], the “Tissue toxicity limits in %” value in the data set with tissue [3] amounted to 1.5%. In addition, in data set [1] (Conc. 0.25%), the “Analgesia-duration, intracutaneous wheals” value amounted to 84 ± 15 min. In addition, in the data set on ulnar volar nerves (Concentration 0.25%), the “Analgesia-duration, finger blockade” value was found to be 263 ± 31 min; the “Frequency” value is reported as 9/10; the “Time of onset, finger blockade” value turned out to be 10 ± 1 min. Besides, in the data set with skin (Conc. 0.25%), the “Temperature Difference (T1 wheal vs T2 controls)” value was -0.1 °C and the “T1 Intracutaneous Wheal temperature” value is 33.1 °C. For the same compound, the “effect on temperature over the wheal” value in the data set with skin (comparison with lidocaine + adrenaline) is “practically no change in temperature”. Moreover, the “anesthetic effect” value in data set [4] is listed as “so far below that of the racemic Bupivacaine”.
On to `CCCCN1CCCC[C@H]1C(=O)Nc1c(C)cccc1C` [4 L], for which, in data set [1] (Conc. 0.25%), the “Analgesia-duration, intracutaneous wheals” value was 76 ± 10 min. In the data set with ulnar volar nerves (Concentration 0.25%), the “Analgesia-duration, finger blockade” value came out at 259 ± 37 min; the “Frequency” value is on record as 13/20; the “Time of onset, finger blockade” value is 13 ± 3 min.
With `Cc1cccc(C)c1NC(=O)C1CCCCN1C` (racemic) [1 R, N--methylpipecolic acid-2,6-xylidide], in the data set on tissue [3], the “Tissue toxicity limits in %” value is 3.5%. For the same compound, the “Analgesia-duration, intracutaneous wheals” value in data set [1] (Conc. 0.5%) came out at 65 ± 9 min. Moreover, in the data set with ulnar volar nerves (Concentration 1.0%), the “Analgesia-duration, finger blockade” value amounted to 102 ± 22 min; the “Frequency” value is given as 13/13; the “Time of onset, finger blockade” value came out at 7 ± 2 min.
`CCCCCN1CCCC[C@H]1C(=O)Nc1c(C)cccc1C` [5 L]: the tissue irritation entry with tissue [2] is “irritating”.
Take `Cc1cccc(C)c1NC(=O)C1CCCCN1CCO` (stereo not drawn) [R--N--2-hydroxyethyl-pipecolic acid-2,6-xylidide]: in the data set on skin (Conc. 1.0%), the “Temperature Difference (T1 wheal vs T2 controls)” value is “+0.5 °C” and the “T1 Intracutaneous Wheal temperature” value stood at 31.2 °C.
`Cc1cccc(C)c1NC(=O)[C@@H]1CCCCN1C` [1 L]: in data set [1] (Conc. 0.5%), the “Analgesia-duration, intracutaneous wheals” value turned out to be 68 ± 11 min. In the data set on ulnar volar nerves (Concentration 1.0%), the “Analgesia-duration, finger blockade” value was determined as 124 ± 21 min; the “Frequency” value is recorded as 11/12; the “Time of onset, finger blockade” value was 7 ± 3 min.
Take `CCCN1CCCC[C@@H]1C(=O)Nc1c(C)cccc1C` [3 D]: in data set [1] (Conc. 0.25%), the “Analgesia-duration, intracutaneous wheals” value stood at 81 ± 14 min. In addition, in the data set with ulnar volar nerves (Concentration 0.25%), the “Analgesia-duration, finger blockade” value turned out to be 175 ± 21 min; the “Frequency” value is 7/8; the “Time of onset, finger blockade” value worked out at 14 ± 3 min.
`CCN1CCCC[C@@H]1C(=O)Nc1c(C)cccc1C` [2 D]: in data set [1] (Conc. 0.25%), the “Analgesia-duration, intracutaneous wheals” value worked out at 58 ± 11 min. Also, in the data set on ulnar volar nerves (Concentration 0.5%), the “Analgesia-duration, finger blockade” value stood at 112 ± 21 min; the “Frequency” value is reported as 10/13; the “Time of onset, finger blockade” value worked out at 9 ± 3 min.
